The values below come from ChEMBL document CHEMBL5131421, “Cadinane Sesquiterpenoids and Their Glycosides from Alangium chinense That Inhibit Spontaneous Calcium Oscillations” (J Nat Prod, 2022).

The nature of assay [1]: Neuroprotective activity in primary neocortical neuron (unknown origin) assessed as inhibition of 4-AP-induced spontaneous calcium channel oscillation frequency measured after 15 min by Fluo-4AM dye based fluorescence assay. It counts as functional, cell-based.
The nature of assay [2]: Neuroprotective activity in primary neocortical neuron (unknown origin) assessed as inhibition of 4-AP-induced spontaneous calcium channel oscillation amplitude measured after 15 min by Fluo-4AM dye based fluorescence assay. The assay is classed as functional, cell-based.
The mark [3] stands for this setting: Primary neocortical neuron, 0.25 h.

One may read the IC50 as the point on the concentration scale where inhibition reaches its midpoint. As to `Cc1cc2c(cc1O)C(=O)[C@](C)(c1ccc(O)c(O)c1)C=C2C(C)C`, the concentration for half-maximal inhibition (IC50) in assay [1] (setting [3]) was 1910 nM; in assay [2] (setting [3]), 8.03 µM.
Consider `Cc1cc2c(cc1O)C(=O)[C@@](C)(c1ccc(O)c(O)c1)C=C2C(C)C`, for which the values for the half-inhibitory concentration (IC50) in assay [1] (setting [3]) and in assay [2] (setting [3]) were 2580 nM and 5.77 µM, respectively.
Regarding `Cc1cc2c(cc1O)[C@@](C)(c1ccc(O)c(O)c1)C(=O)C=C2C(C)C`, the figures for the half-maximal inhibitory concentration (IC50) in assay [1] (setting [3]) and in assay [2] (setting [3]) were 3090 nM and 7.38 µM, respectively.
With `Cc1cc2c(cc1O)[C@](C)(c1ccc(O)c(O)c1)C(=O)C=C2C(C)C`, the IC50 was found to be 2050 nM in assay [1] (setting [3]) and 5.36 µM in assay [2] (setting [3]).
The like results for `Cc1cc2c(cc1O)C(=O)C(C)(c1ccc(O)c(O)c1)C=C2C(C)C` (racemic) were, in that order, 970 nM and 6.1 µM.
Regarding `Cc1cc2c(cc1O)C(C)(c1ccc(O)c(O)c1)C(=O)C=C2C(C)C` (racemic), the 50% inhibitory concentration (IC50) in assay [1] (setting [3]) worked out at 3450 nM; in assay [2] (setting [3]) it was 5.56 µM.
Consider `NC1=N[C@H](O)[C@H]2[C@H]3O[C@]4(O)O[C@@H]([C@@H](O)[C@@]2(N1)[C@@H]4O)[C@]3(O)CO` [TETRODOTOXIN], for which the IC50 amounted to 4.93 nM in assay [1] (primary neocortical neuron) and 0.00169 µM in assay [2] (primary neocortical neuron).
